The text below walks through data of paper PMC7158045 (BMC Plant Biology, 2020).

Common to all, as to test: biochemical
The target of assay [1] is T1, ZmDRIK1 (DROUGHT RESPONSIVE INACTIVE KINASE 1), kinase domain (Zea mays, UniProt C0P4K9).
T1 construct: gene ZEAMMB73_Zm00001d028770; ZmDRIK1-KD R187-S514 (kinase domain)
T1 sequence (C0P4K9 187-514): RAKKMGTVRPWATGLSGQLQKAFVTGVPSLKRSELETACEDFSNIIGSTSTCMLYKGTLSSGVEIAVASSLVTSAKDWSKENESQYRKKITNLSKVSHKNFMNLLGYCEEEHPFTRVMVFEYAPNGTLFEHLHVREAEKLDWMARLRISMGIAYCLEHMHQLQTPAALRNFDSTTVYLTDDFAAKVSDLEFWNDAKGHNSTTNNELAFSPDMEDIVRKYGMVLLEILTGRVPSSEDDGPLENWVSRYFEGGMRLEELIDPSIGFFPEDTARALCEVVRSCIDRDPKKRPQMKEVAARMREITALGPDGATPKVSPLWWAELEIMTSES
To be noted: DSF, Boltzmann fit, 0.1% DMSO; for dTm B: sheet ZmDRIK1-R187-S514;, 10 µM, binder; for ΔTm at 10 µM: read-out: dTm B, sheet ZmDRIK1-R187-S514;. (Differential scanning fluorimetry follows unfolding on heating by fluorescence.)

The next assay addresses T2, ZmDRIK1-K217-S514 (Zea mays, UniProt C0P4K9).
T2 construct: kinase domain, K217-S514
T2 sequence (C0P4K9 1-514): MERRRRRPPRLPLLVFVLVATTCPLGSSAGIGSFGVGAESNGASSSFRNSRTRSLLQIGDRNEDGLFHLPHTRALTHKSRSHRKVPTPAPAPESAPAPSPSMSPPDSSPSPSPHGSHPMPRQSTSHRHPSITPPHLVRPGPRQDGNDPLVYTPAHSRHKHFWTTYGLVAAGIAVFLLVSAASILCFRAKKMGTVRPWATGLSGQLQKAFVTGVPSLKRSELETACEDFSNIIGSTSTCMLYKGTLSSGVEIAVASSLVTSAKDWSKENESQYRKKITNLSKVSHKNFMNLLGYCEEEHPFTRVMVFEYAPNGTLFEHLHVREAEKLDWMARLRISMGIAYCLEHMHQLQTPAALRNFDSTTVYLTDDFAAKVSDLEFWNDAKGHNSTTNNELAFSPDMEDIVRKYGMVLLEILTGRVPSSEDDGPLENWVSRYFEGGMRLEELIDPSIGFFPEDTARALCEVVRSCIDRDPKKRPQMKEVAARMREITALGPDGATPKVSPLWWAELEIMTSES

The target of another assay is T3, ZmDRIK1-R187-P492 (Zea mays, UniProt C0P4K9).
T3 construct: kinase domain, R187-P492
T3 sequence (C0P4K9 1-514): T2 sequence (C0P4K9 1-514)

The target in a further assay is T4, ZmDRIK1-K217-P492 (Zea mays, UniProt C0P4K9).
T4 construct: kinase domain, K217-P492
T4 sequence (C0P4K9 1-514): T2 sequence (C0P4K9 1-514)

Setting [2] is: read-out: dTm B, sheet ZmDRIK1-K217-S514;, DSF, Boltzmann fit, 0.1% DMSO.
The mark [3] stands for this setting: read-out: dTm B, DSF, Boltzmann fit, 0.1% DMSO.
[4] abbreviates: read-out: dTm B, sheet ZmDRIK1-K217-P492;, DSF, Boltzmann fit, 0.1% DMSO.

Counter-ions that a name gives are not always drawn. Like-named read-outs stand apart in the source and are kept apart here.

For `N#CC[C@H](C1CCCC1)n1cc(-c2ncnc3[nH]ccc23)cn1` [S-Ruxolitinib (INCB018424)], the “dTm B” value in assay [1] is -0.5823 degC.
Same read-out and setting: to `CN(c1ncccc1CNc1nc(Nc2ccc3c(c2)CC(=O)N3)ncc1C(F)(F)F)S(C)(=O)=O` [PF-562271] belongs -0.5293 degC.
In the case of `COc1ncccc1-c1cnn2ccc(N3CCN(C(=O)OC(C)C)CC3)nc12` [LP-935509 (AAK1)], the ΔTm at 10 µM is -0.536 °C at ZmDRIK1-K217-S514 (read-out: dTm B), -0.447 °C at ZmDRIK1-R187-P492 (read-out: dTm B) and -0.638 °C on ZmDRIK1-K217-P492 (read-out: dTm B).
For `COc1ccc(-c2ccc3ncc4c(c3c2)n(-c2ccc(N3CCNCC3)c(C(F)(F)F)c2)c(=O)n4C)cn1` [BGT226 (NVP-BGT226)], the ΔTm at 10 µM was 0.245 °C on ZmDRIK1-K217-S514 (setting [2]), -0.244 °C on ZmDRIK1-R187-P492 (setting [3]) and -0.378 °C on ZmDRIK1-K217-P492 (setting [4]).
With `CNC(=O)Nc1ccc(-c2nc(N3CC4CCC(C3)O4)c3cnn(C4CCC5(CC4)OCCO5)c3n2)cc1` [WYE-125132 (WYE-132)], the ΔTm at 10 µM in assay [1] is -0.649 °C; on ZmDRIK1-K217-S514 (setting [2]), -0.412 °C; at ZmDRIK1-K217-P492 (setting [4]), -0.91 °C.
In the case of `N#CC[C@H](C1CCCC1)n1cc(-c2ncnc3[nH]ccc23)cn1` [Ruxolitinib (INCB018424)], the “dTm B” value in assay [1] is reported as -0.7708 degC.
On to `COc1cc2c(Oc3ccc(NC(=O)C4(C(=O)Nc5ccc(F)cc5)CC4)cc3F)ccnc2cc1OCCCN1CCOCC1` [Foretinib (GSK1363089)], for which the ΔTm at 10 µM on ZmDRIK1-K217-S514 (setting [2]) was -14.7 °C; at ZmDRIK1-R187-P492 (setting [3]), 5.58 °C; at ZmDRIK1-K217-P492 (setting [4]) it was -14.9 °C.
Taken in the same sequence, the figures for `CS(=O)(=O)CCNCc1ccc(-c2ccc3ncnc(Nc4ccc(OCc5cccc(F)c5)c(Cl)c4)c3c2)o1` [Lapatinib (GW-572016) Ditosylate] were -16 °C, 1.26 °C and -0.876 °C.
Turning to `CN(C[C@@H]1COCCO1)S(=O)(=O)Nc1ccc2ccc3ncc(-c4cnn(C)c4)cc3c(=O)c2c1` [MK-2461], the results for the ΔTm at 10 µM (in assay [1]; at ZmDRIK1-K217-S514 (setting [2]); on ZmDRIK1-K217-P492 (setting [4])) were -1 °C, -0.402 °C and -1.12 °C, respectively.
For the compound `CN1CCN(c2ccc3nc(-c4c(N)c5c(F)cccc5[nH]c4=O)[nH]c3c2)CC1` [Dovitinib (TKI-258) Dilactic Acid], the “dTm B” value in assay [1] is listed as -0.2117 degC.
`CCc1cc(Nc2nccc(-c3c(-c4ccc(OC)c(C(=O)Nc5c(F)cccc5F)c4)nc4ccccn34)n2)c(OC)cc1N1CCC(N2CCN(S(C)(=O)=O)CC2)CC1` [GSK1904529A]: the values for the ΔTm at 10 µM (in assay [1]; on ZmDRIK1-K217-S514 (setting [2]); at ZmDRIK1-K217-P492 (setting [4])) were 0.265 °C, -0.386 °C and -0.895 °C, respectively.
In the case of `CN(c1ncccc1CNc1nc(Nc2ccc3c(c2)CC(=O)N3)ncc1C(F)(F)F)S(C)(=O)=O` [PF-00562271], the “dTm B” value in assay [1] is -0.8176 degC.
As for `CNC(=O)c1cc(Oc2ccc(NC(=O)Nc3ccc(Cl)c(C(F)(F)F)c3)cc2)ccn1` [Sorafenib Tosylate], the ΔTm at 10 µM in assay [1] was -12 °C.
Take `CN1CCN(c2ccc3nc(-c4c(N)c5c(F)cccc5[nH]c4=O)[nH]c3c2)CC1` [Dovitinib (TKI-258)]: the “dTm B” value in assay [1] is -0.003273 degC.
Still for that read-out and setting: under `COc1cc(Nc2ncc(F)c(Nc3ccc4c(n3)NC(=O)C(C)(C)O4)n2)cc(OC)c1OC` [R406 (free base)] stands -0.8381 degC.
Consider `O=C(NOCC1CC1)c1ccc(F)c(F)c1Nc1ccc(I)cc1Cl` [PD184352 (CI-1040)], for which the results for the ΔTm at 10 µM on ZmDRIK1-K217-S514 (setting [2]), on ZmDRIK1-R187-P492 (setting [3]) and at ZmDRIK1-K217-P492 (setting [4]) were 0.792 °C, -0.348 °C and -1.2 °C, respectively.
Taken in the same sequence, the figures for `CC(C)(C)c1nc(-c2cccc(NS(=O)(=O)c3c(F)cccc3F)c2F)c(-c2ccnc(N)n2)s1` [Dabrafenib (GSK2118436)] were -0.366 °C, -0.533 °C and -1.14 °C.
Taken in the same sequence, the figures for `Cn1c(Nc2ccc(C(F)(F)F)cc2)nc2cc(Oc3ccnc(-c4ncc(C(F)(F)F)[nH]4)c3)ccc21` [RAF265 (CHIR-265)] were 10.1 °C, -2.04 °C and 0.39 °C.
For the compound `COc1cc2nccc(Oc3ccc(NC(=O)C4(C(=O)Nc5ccc(F)cc5)CC4)cc3)c2cc1OC` [Cabozantinib malate (XL184)], in assay [1], the ΔTm at 10 µM is -14.9 °C.
With `CCc1cncnc1N1CCN(Cc2nc3ccc(C(F)(F)F)cc3[nH]2)CC1` [PF-4708671], the ΔTm at 10 µM in assay [1] was -0.759 °C; at ZmDRIK1-K217-S514 (setting [2]) it was -0.219 °C; on ZmDRIK1-K217-P492 (setting [4]), -0.666 °C.
Take `Cc1ccc(Nc2nccc(N(C)c3ccc4c(C)n(C)nc4c3)n2)cc1S(N)(=O)=O` [Pazopanib]: the “dTm B” value in assay [1] is given as -0.7756 degC.
For `COc1c(C)c(C(=O)c2ccc(N)c(C(=O)O)c2)n2ccccc12` [SSR128129E], the ΔTm at 10 µM in assay [1] was -0.884 °C; at ZmDRIK1-K217-S514 (setting [2]), -0.406 °C; on ZmDRIK1-K217-P492 (setting [4]), -0.939 °C.
With `NC(=O)Nc1sc(-c2ccc(F)cc2)cc1C(N)=O` [TPCA-1], the ΔTm at 10 µM in assay [1] is -0.582 °C; on ZmDRIK1-K217-S514 (setting [2]) it was 0.285 °C; at ZmDRIK1-R187-P492 (setting [3]), 0.149 °C.
Turning to `O=c1c(-c2ccc(O)cc2)coc2cc(O)cc(O)c12` [Genistein], the ΔTm at 10 µM is -13.4 °C on ZmDRIK1-K217-S514 (setting [2]), -17.5 °C at ZmDRIK1-R187-P492 (setting [3]) and -18.8 °C on ZmDRIK1-K217-P492 (setting [4]).
Taken in the same sequence, the figures for `COc1cc(N2CCC(N3CCN(C)CC3)CC2)ccc1Nc1ncc(Cl)c(Nc2ccccc2P(C)(C)=O)n1` [AP26113] were -0.362 °C, -0.259 °C and -0.987 °C.
For the compound `S=C(NCc1ccc2c(c1)OCO2)N1CCN(c2ncnc3c2oc2ccccc23)CC1` [Amuvatinib (MP-470)], the ΔTm at 10 µM at ZmDRIK1-K217-S514 (setting [2]) was -3.2 °C; on ZmDRIK1-R187-P492 (setting [3]), -10.8 °C; on ZmDRIK1-K217-P492 (setting [4]) it was 9.06 °C.
For the compound `NS(=O)(=O)c1ccc(N/C=C2\C(=O)Nc3ccc4ncsc4c32)cc1` [GW297361X], the ΔTm at 10 µM in assay [1] was -0.74 °C.
On to `Nc1ccc(-c2ccc3ncc4ccc(=O)n(-c5cccc(C(F)(F)F)c5)c4c3c2)cn1` [Torin 2], for which the ΔTm at 10 µM at ZmDRIK1-K217-S514 (setting [2]) is -0.322 °C; at ZmDRIK1-R187-P492 (setting [3]) it was -0.3 °C; at ZmDRIK1-K217-P492 (setting [4]), -0.531 °C.
On to `Cc1ccc(NC(=O)c2cccc(C(C)(C)C#N)c2)cc1Nc1ccc2ncn(C)c(=O)c2c1` [AZ 628], for which the ΔTm at 10 µM on ZmDRIK1-K217-S514 (setting [2]) was -0.322 °C; at ZmDRIK1-R187-P492 (setting [3]), -0.122 °C; at ZmDRIK1-K217-P492 (setting [4]) it was -0.776 °C.
With `COc1cc(Nc2ncc(F)c(Nc3ccc4c(n3)NC(=O)C(C)(C)O4)n2)cc(OC)c1OC` [R406], the “dTm B” value in assay [1] is -1.004 degC.
As to `Cc1ccccc1-n1c(Cn2ncc3c(N)ncnc32)nc2cccc(C)c2c1=O` [PIK-293], the ΔTm at 10 µM in assay [1] is -1.14 °C; on ZmDRIK1-R187-P492 (setting [3]), -0.695 °C; at ZmDRIK1-K217-P492 (setting [4]), -1.04 °C.
As to `C[C@@H](Oc1cc(-c2cnn(C3CCNCC3)c2)cnc1N)c1c(Cl)ccc(F)c1Cl` [Crizotinib (PF-02341066)], the ΔTm at 10 µM in assay [1] was -0.958 °C; on ZmDRIK1-K217-S514 (setting [2]), -0.67 °C; at ZmDRIK1-R187-P492 (setting [3]), -0.336 °C.
As for `COc1cc2nccc(Oc3ccc(NC(=O)Nc4ccc(F)cc4F)c(F)c3)c2cc1OC` [Ki8751], the figures for the ΔTm at 10 µM at ZmDRIK1-K217-S514 (setting [2]), on ZmDRIK1-R187-P492 (setting [3]) and at ZmDRIK1-K217-P492 (setting [4]) were -0.589 °C, -0.397 °C and -0.321 °C, respectively.
As to `Cc1ccc(Nc2nccc(N(C)c3ccc4c(C)n(C)nc4c3)n2)cc1S(N)(=O)=O` [Pazopanib HCl (GW786034 HCl)], the “dTm B” value in assay [1] is reported as -0.83 degC.
